These results are taken from US20170267667A1, “[…] AS NON-NUCLEOSIDE REVERSE TRANSCRIPTASE INHIBITORS FOR ANTI-HIV-1 CHEMOTHERAPY” (Purdue Research Foundation, priority 2016, published 2017).

Data set [1] can be described thus: Cytotoxicity for mock-infected MT-4 cells. The class given is cell-based. Conditions: human. The method, then:
(§1) In Vitro Antiviral Assay. Evaluation of the antiviral activity of compounds against HIV- 1RF infection in CEM-SS cells was performed using the XTT cytoprotection assay, as previously described (Buckheit, R. W. Jr., et al., Antiviral Res. 1995, 26, 117-132). Evaluation of the antiviral activity of compounds against HIV-1IIIB and HIV-2ROD in MT-4 cells was performed using the MTT assay, as previously described (Rice, W. G. and Bader, J. P., Adv. Pharmacol. (San Diego) 1995, 33, 389-438).
(§2) Biological Results. The antiviral activities of the ADAMs were evaluated by determining their ability to inhibit the enzymatic activity of HIV-1 RT in vitro (IC50) and protect HIV-infected cells from the cytopathic effects (EC50) of two viral strains (HIV-1RF and HIV-1IIIB). The cytotoxicities (CC50) of the ADAMs were determined on CEM-SS cells and MT-4 cells.

Data set [2] addresses HIV-1 reverse transcriptase (Human immunodeficiency virus type 1 group M subtype B, UniProt P04585). Description: RT inhibition assay, incorporation of [32P]GTP into poly(rC)/oligo(dG) template primer. The class given is biochemical. Particulars: poly(rC):oligo(dG) as the template primer; mean of at least two experiments; read-out: IC50 inhibitory activity versus HIV-1 reverse transcriptase. The method, then: RT Inhibition Assay. Inhibition of purified recombinant reverse transcriptase was measured by the incorporation of [^32P]GTP into poly(rC)/oligo(dG) homopolymer template primers, as previously described (Cushman, M., et al., J. Med. Chem. 1996, 39, 3217-3227).

A short description of data set [3]: Cytotoxicity for mock-infected CEM-SS cells. The format is cell-based. Conditions: human. The method, then:
as §1, §2

The subject of data set [4] is HIV-1RF. Description: XTT cytoprotection assay, HIV-1RF infection in CEM-SS cells. The format is cell-based. Particulars: for EC50: Human immunodeficiency virus 1, inhibition of cytopathicity of HIV-1RF in CEM-SS cells; for SI (CC50/EC50) CEM-SS cells: CC50/EC50 ratio, HIV-1RF in CEM-SS cells. The method, then:
as §1

Data set [5] has as its system HIV-1IIIB. The experiment in a line: MTT assay, HIV-1IIIB in MT-4 cells. The class given is cell-based. Conditions: for EC50: Human immunodeficiency virus 1, MT4, inhibition of cytopathicity of HIV-1IIIB in MT-4 cells; for SI (CC50/EC50) MT-4 cells: CC50/EC50 ratio, HIV-1IIIB in MT-4 cells. The method, then:
as §1

The structures appear in SMILES notation. Some results are limits rather than exact numbers.

Take `CON=C(Cl)c1cc(/C(=C\CCCN2CCOC2=O)c2cc(C)c3oc(=O)n(C)c3c2)cc(C)c1OC` [ADAM 18, 5-[(1E)-1-(3,7-Dimethyl-2-oxo-2,3-dihydro-1,3-benzoxazol-5-yl)-5-(2-oxo-1,3-oxazolidin-3-yl)pent-1-en-1-yl]-N,2-dimethoxy-3-methylbenzenecarboximidoyl Chloride]: the 50% cytotoxic concentration (CC50) in data set [1] amounted to 5.19 µM; in data set [3] it was 5.99 µM. In addition, the IC50 in data set [2] came out at 62.9 µM. In addition, the EC50 in data set [4] is more than 100000 nM; in data set [5], more than 5190 nM.

In turn, `CO/N=C(\Cl)CCC/C=C(/c1cccc(C#N)c1)c1cc(C)c(OC)c(C(=O)SC)c1` [ADAM 28, S-Methyl 5-[(1Z,6Z)-6-Chloro-1-(3-cyanophenyl)-6-(methoxyimino)hex-1-en-1-yl]-2-methoxy-3-methylbenzenecarbothioate] had a CC50 in data set [1] of 143 µM. Besides, in data set [2], the IC50 is 45.3 µM. For the same compound, in data set [3], it took 75.5 µM to reach half-maximal cytotoxicity (CC50). In data set [4], the “SI (CC50/EC50) CEM-SS cells” value came out at 52 and the EC50 was found to be 1460 nM. In data set [5], the “SI (CC50/EC50) MT-4 cells” value turned out to be 59 and a half-maximal response (EC50) required 2430 nM.

`CON=C(F)c1cc(/C(=C\CCCc2nnc(C)o2)c2cc(C)c3onc(OC)c3c2)cc(C)c1OC` [ADAM 7, N,2-Dimethoxy-5-[(1Z)-1-(3-methoxy-7-methyl-1,2-benzoxazol-5-yl)-5-(5-methyl-1,3,4-oxadiazol-2-yl)pent-1-en-1-yl]-3-methylbenzenecarboximidoyl Fluoride] registered a CC50 in data set [1] of 15.8 µM. The IC50 in data set [2] was found to be 1.4 µM. This compound gave a CC50 in data set [3] of 13.9 µM. In data set [4], the “SI (CC50/EC50) CEM-SS cells” value is listed as 7 and the EC50 was 1900 nM. For the same compound, in data set [5], the “SI (CC50/EC50) MT-4 cells” value is reported as 6 and the EC50 stood at 2860 nM.

For `CON=C(F)c1cc(/C(=C\CCCc2nc(C)no2)c2cc(C)c3onc(OC)c3c2)cc(C)c1OC` [ADAM 8, N,2-Dimethoxy-5-[(1Z)-1-(3-methoxy-7-methyl-1,2-benzoxazol-5-yl)-5-(3-methyl-1,2,4-oxadiazol-5-yl)pent-1-en-1-yl]-3-methylbenzenecarboximidoyl Fluoride], the CC50 in data set [1] is 9.66 µM. For the same compound, in data set [2], the IC50 was found to be 1.85 µM. The CC50 in data set [3] is 5.39 µM. Moreover, in data set [4], the “SI (CC50/EC50) CEM-SS cells” value came out at 3 and a half-maximal effect (EC50) was put at 2040 nM. Besides, in data set [5], the “SI (CC50/EC50) MT-4 cells” value came to 2 and it took 4070 nM to reach a half-maximal effect (EC50).

In the case of `CO/N=C(\Cl)CCC/C=C(\c1cc(C)c(OC)c(C(=O)SC)c1)c1cc(C)c2onc(OC)c2c1` [ADAM 27, S-Methyl 5-[(1Z,6Z)-6-Chloro-6-(methoxyimino)-1-(3-methoxy-7-methyl-1,2-benzoxazol-5-yl)hex-1-en-1-yl]-2-methoxy-3-methylbenzenecarbothioate], the cytotoxic concentration (CC50) in data set [1] was 16.3 µM. The IC50 in data set [2] is 36.4 µM. In data set [3], the CC50 was determined as 7.2 µM. Further, in data set [4], the “SI (CC50/EC50) CEM-SS cells” value turned out to be 3 and the EC50 came to 2420 nM. For the same compound, in data set [5], the “SI (CC50/EC50) MT-4 cells” value came to 5 and the midpoint of the response, the EC50, lay at 3270 nM.

For `CON=C(Cl)c1cc(/C(=C\CCCN2CCOC2=O)c2ccc(C#N)cc2)cc(C)c1OC` [ADAM 25, 5-[(1Z)-1-(4-Cyanophenyl)-5-(2-oxo-1,3-oxazolidin-3-yl)pent-1-en-1-yl]-N,2-dimethoxy-3-methylbenzenecarboximidoyl Chloride], the cytotoxic concentration (CC50) in data set [1] and in data set [3] was 6.48 µM in each case. Besides, the IC50 in data set [2] was 42.1 µM. Also, the results for the concentration giving a half-maximal response (EC50) in data set [4] and in data set [5] were more than 100000 nM and more than 6480 nM, respectively.

Regarding `CON=C(Cl)c1cc(/C(=C\CCCc2nnc(C)o2)c2cc(C)c3onc(OC)c3c2)cc(C)c1OC` [ADAM 19, N,2-Dimethoxy-5-[(1Z)-1-(3-methoxy-7-methyl-1,2-benzoxazol-5-yl)-5-(5-methyl-1,3,4-oxadiazol-2-yl)pent-1-en-1-yl]-3-methylbenzenecarboximidoyl Chloride], in data set [1], the midpoint of cytotoxicity, the CC50, lay at 17.5 µM. Besides, the IC50 in data set [2] was found to be 33.8 µM. This compound displayed a CC50 in data set [3] of 9.7 µM. Further, in data set [4], the “SI (CC50/EC50) CEM-SS cells” value is 2 and the EC50 turned out to be 5200 nM. Moreover, in data set [5], the “SI (CC50/EC50) MT-4 cells” value was “≦2” and the EC50 is not below 7030 nM.

As to `CON=C(F)c1cc(/C(=C\CCCN2CCOC2=O)c2ccc(C#N)cc2)cc(C)c1OC` [ADAM 15, 5-[(1Z)-1-(4-Cyanophenyl)-5-(2-oxo-1,3-oxazolidin-3-yl)pent-1-en-1-yl]-N,2-dimethoxy-3-methylbenzenecarboximidoyl Fluoride], the figures for the CC50 in data set [1] and in data set [3] were 21.1 µM and 6.7 µM, respectively. Moreover, in data set [2], the IC50 is more than 100 µM. In addition, the EC50 in data set [4] is more than 100000 nM; in data set [5], more than 21100 nM.

As to `CON=C(F)c1cc(/C(=C\CCCc2nnc(C)o2)c2cccc(C#N)c2)cc(C)c1OC` [ADAM 10, 5-[(1Z)-1-(3-Cyanophenyl)-5-(5-methyl-1,3,4-oxadiazol-2-yl)pent-1-en-1-yl]-N,2-dimethoxy-3-methylbenzenecarboximidoyl Fluoride], the figures for the CC50 in data set [1] and in data set [3] were 1.07 µM and 1.8 µM, respectively. In addition, the IC50 in data set [2] amounted to 37.1 µM. In addition, the values for the EC50 in data set [4] and in data set [5] were more than 100000 nM and more than 1090 nM, respectively.

The compound `CON=C(F)c1cc(/C(=C\CCCc2nnc(C)o2)c2cc(C)c3oc(=O)n(C)c3c2)cc(C)c1OC` [ADAM 5, 5-[(1E)-1-(3,7-Dimethyl-2-oxo-2,3-dihydro-1,3-benzoxazol-5-yl)-5-(5-methyl-1,3,4-oxadiazol-2-yl)pent-1-en-1-yl]-N,2-dimethoxy-3-methylbenzenecarboximidoyl Fluoride] registered a CC50 in data set [1] of 26.5 µM. For the same compound, in data set [2], the IC50 amounted to 3.4 µM. In data set [3], this compound displayed a CC50 of 6.5 µM. Besides, in data set [4], the “SI (CC50/EC50) CEM-SS cells” value was 13 and the EC50 is 500 nM. For the same compound, in data set [5], the “SI (CC50/EC50) MT-4 cells” value turned out to be 76 and it took 350 nM to reach a half-maximal effect (EC50).

For `CON=C(Cl)c1cc(/C(=C\CCCc2nnc(C)o2)c2cc(C)c3oc(=O)n(C)c3c2)cc(C)c1OC` [ADAM 16, 5-[(1E)-1-(3,7-Dimethyl-2-oxo-2,3-dihydro-1,3-benzoxazol-5-yl)-5-(5-methyl-1,3,4-oxadiazol-2-yl)pent-1-en-1-yl]-N,2-dimethoxy-3-methylbenzenecarboximidoyl Chloride], the CC50 worked out at 19.9 µM in data set [1] and 4.7 µM in data set [3]. Moreover, in data set [2], the IC50 was found to be 8.2 µM. For the same compound, the “SI (CC50/EC50) CEM-SS cells” value in data set [4] came out at 4. In addition, the EC50 in data set [4] was determined as 1100 nM; in data set [5], 740 nM. Moreover, the “SI (CC50/EC50) MT-4 cells” value in data set [5] was determined as 27.

Regarding `CON=C(Cl)c1cc(/C(=C\CCCc2nc(C)no2)c2ccc(C#N)cc2)cc(C)c1OC` [ADAM 24, 5-[(1Z)-1-(4-Cyanophenyl)-5-(3-methyl-1,2,4-oxadiazol-5-yl)pent-1-en-1-yl]-N,2-dimethoxy-3-methylbenzenecarboximidoyl Chloride], half-maximal cytotoxicity in data set [1] (CC50) was put at 97.5 µM. The IC50 in data set [2] turned out to be 0.1 µM. The same compound displayed a 50% cytotoxic concentration (CC50) in data set [3] of 16.9 µM. In addition, in data set [4], the “SI (CC50/EC50) CEM-SS cells” value was determined as 7 and the midpoint of the response, the EC50, lay at 2520 nM. In addition, in data set [5], the “SI (CC50/EC50) MT-4 cells” value is 35 and a half-maximal effect (EC50) was put at 2750 nM.
